Source: patent publication US20210100760A1 (Strongbridge Dublin Limited, priority 2019, published 2021)
Where two headings read alike, the source gives them in different places.

Assays:
[1] = molecular target: T1, OAT3 (Homo sapiens, UniProt Q8TCC7); test: OAT3 positive-control inhibition, [3H]-Estrone-3-sulfate probe substrate uptake in HEK293 cells; type: in vitro ADME; settings: [3H]-Estrone-3-sulfate (50 nM) probe, inhibitor 100 μM
T1 sequence (Q8TCC7 1-542): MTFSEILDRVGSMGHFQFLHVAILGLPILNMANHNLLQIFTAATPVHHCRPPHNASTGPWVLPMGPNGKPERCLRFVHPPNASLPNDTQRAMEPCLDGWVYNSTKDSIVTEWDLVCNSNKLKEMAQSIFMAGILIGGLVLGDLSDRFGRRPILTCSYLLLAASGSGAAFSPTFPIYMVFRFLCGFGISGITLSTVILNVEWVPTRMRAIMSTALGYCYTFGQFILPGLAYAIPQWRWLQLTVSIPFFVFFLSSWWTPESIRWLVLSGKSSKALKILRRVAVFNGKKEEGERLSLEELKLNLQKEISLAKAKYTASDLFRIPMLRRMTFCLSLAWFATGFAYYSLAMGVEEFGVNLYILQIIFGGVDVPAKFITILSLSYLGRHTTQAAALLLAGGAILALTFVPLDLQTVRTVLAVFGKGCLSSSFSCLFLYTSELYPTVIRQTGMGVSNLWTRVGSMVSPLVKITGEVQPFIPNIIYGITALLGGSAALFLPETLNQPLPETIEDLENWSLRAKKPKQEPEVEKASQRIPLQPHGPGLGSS

[2] = low plasma concentrations (1.0 to 2.0 mg/100 mL); cited from earlier work
[3] = molecular target: T1, OAT3; test: OAT3 substrate determination in HEK293 cells; type: in vitro ADME; settings: for Uptake ratio: OAT3 vs control cells; for Uptake (Average ± SD), OAT3: OAT3-expressing HEK293 cells; for recovery at 10 μM: human
[4] = molecular target: T2, OAT1 (Homo sapiens, UniProt Q4U2R8); test: OAT1 substrate determination in HEK293 cells; type: in vitro ADME; settings: for Uptake ratio: OAT1 vs control cells; for Uptake (Average ± SD), OAT1: OAT1-expressing HEK293 cells; for recovery at 10 μM: human
T2 sequence (Q4U2R8 1-563): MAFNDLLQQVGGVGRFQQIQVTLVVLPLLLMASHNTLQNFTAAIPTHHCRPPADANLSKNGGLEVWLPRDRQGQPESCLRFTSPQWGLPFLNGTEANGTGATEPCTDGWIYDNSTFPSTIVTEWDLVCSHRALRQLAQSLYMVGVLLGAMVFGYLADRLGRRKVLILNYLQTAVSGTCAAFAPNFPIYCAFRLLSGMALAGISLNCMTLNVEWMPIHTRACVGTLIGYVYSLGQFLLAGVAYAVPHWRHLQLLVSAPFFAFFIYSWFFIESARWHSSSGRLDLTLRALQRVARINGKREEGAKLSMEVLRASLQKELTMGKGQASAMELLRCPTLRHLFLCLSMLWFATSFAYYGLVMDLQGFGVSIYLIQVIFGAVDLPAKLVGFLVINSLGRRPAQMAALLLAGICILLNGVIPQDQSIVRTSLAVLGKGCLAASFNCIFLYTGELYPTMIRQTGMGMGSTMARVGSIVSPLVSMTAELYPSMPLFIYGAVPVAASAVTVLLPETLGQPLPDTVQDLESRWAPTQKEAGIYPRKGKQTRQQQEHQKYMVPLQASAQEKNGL

[5] = dichlorphenamide 10 μM + probenecid 100 μM, 1 min
[6] = dichlorphenamide 10 μM + probenecid 100 μM, 3 min
[7] = dichlorphenamide 10 μM + probenecid 100 μM, 10 min
[8] = dichlorphenamide 10 μM + probenecid 100 μM, control HEK293 cells, 1 min
[9] = dichlorphenamide 10 μM + probenecid 100 μM, control HEK293 cells, 3 min
[10] = dichlorphenamide 10 μM + probenecid 100 μM, control HEK293 cells, 10 min
[11] = dichlorphenamide 10 μM, incubation 1 min
[12] = dichlorphenamide 10 μM, incubation 3 min
[13] = dichlorphenamide 10 μM, incubation 10 min

For `CCCN(CCC)S(=O)(=O)c1ccc(C(=O)O)cc1` [Probenecid], the “Background corrected uptake rate” value [1] was 0.0184 pmol/mg/min, the “Uptake (Average ± SD), OAT3” value ([1]; OAT3-expressing HEK293 cells) was 0.104 ± 0.006 pmol/mg protein and the “Uptake (Average ± SD), Control” value ([1]; control HEK293 cells) was 0.0670 ± 0.0124 pmol/mg protein. For the same compound, the activity at 100 μM ([1]; human, HEK293 cells expressing OAT3 and control cells, pH 7.4, probe [3H]-Estrone-3-sulfate (50 nM), relative to solvent control, read-out: Percent of control) was 3.2%.

In the case of `Nc1ccc(C(=O)NCC(=O)O)cc1` [aminohippurate, p-aminohippuric acid], the “Fraction cleared by the kidneys from the renal blood stream in a single circulation (average)” value [2] is listed as 90%.

With `NS(=O)(=O)c1cc(Cl)c(Cl)c(S(N)(=O)=O)c1` [Dichlorphenamide, 4,5-dichloro-1,3-benzenedisulfonamide] the “Substrate of OAT3 (conclusion from Tables 3 and 4)” value ([3]; HEK293 cells) was “is a substrate of OAT3”, the Uptake ratio [3, 5] was 0.987 and the Uptake ratio [3, 6] was 1.00. The Uptake ratio [3, 7] was 1.24, the Uptake ratio ([3]; dichlorphenamide 10 μM, 1 min) was 2.26 and the Uptake ratio ([3]; dichlorphenamide 10 μM, 3 min) was 2.64. The Uptake ratio ([3]; dichlorphenamide 10 μM, 10 min) was 2.75, the “Uptake (Average ± SD), OAT3” value [3, 5] was 123 ± 7 pmol/mg protein and the “Uptake (Average ± SD), OAT3” value [3, 6] was 126 ± 18 pmol/mg protein. The “Uptake (Average ± SD), OAT3” value [3, 7] was 177 ± 16 pmol/mg protein, the “Uptake (Average ± SD), Control” value [3, 8] was 124 ± 13 pmol/mg protein and the “Uptake (Average ± SD), Control” value [3, 9] was 125 ± 5 pmol/mg protein. The “Uptake (Average ± SD), Control” value [3, 10] was 143 ± 41 pmol/mg protein, the “Uptake (Average ± SD), OAT3” value [3, 11] was 333 ± 24 pmol/mg protein and the “Uptake (Average ± SD), OAT3” value [3, 12] was 311 ± 29 pmol/mg protein. The “Uptake (Average ± SD), OAT3” value [3, 13] was 463 ± 27 pmol/mg protein, the “Uptake (Average ± SD), Control” value ([3]; dichlorphenamide 10 μM, control HEK293 cells, incubation 1 min) was 147 ± 47 pmol/mg protein and the “Uptake (Average ± SD), Control” value ([3]; dichlorphenamide 10 μM, control HEK293 cells, incubation 3 min) was 118 ± 3 pmol/mg protein. The “Uptake (Average ± SD), Control” value ([3]; dichlorphenamide 10 μM, control HEK293 cells, incubation 10 min) was 169 ± 9 pmol/mg protein, the recovery at 10 μM ([3]; HEK293 cells expressing OAT3, pH 7.4, read-out: Recovery, OAT3) was 77.9% and the recovery at 10 μM ([3]; control HEK293 cells, pH 7.4, read-out: Recovery, Control) was 68.8%. For the same compound, the “Substrate of OAT1 (conclusion from Tables 1 and 2)” value ([4]; HEK293 cells) was “is a substrate of OAT1”, the Uptake ratio [4, 5] was 1.29 and the Uptake ratio [4, 6] was 1.11. For the same compound, the Uptake ratio [4, 7] was 1.01, the Uptake ratio ([4]; dichlorphenamide 10 μM, 1 min) was 2.41 and the Uptake ratio ([4]; dichlorphenamide 10 μM, 3 min) was 2.39. The Uptake ratio ([4]; dichlorphenamide 10 μM, 10 min) was 2.23, the “Uptake (Average ± SD), OAT1” value [4, 5] was 54.4 ± 2.7 pmol/mg protein and the “Uptake (Average ± SD), OAT1” value [4, 6] was 135 ± 6 pmol/mg protein. The “Uptake (Average ± SD), OAT1” value [4, 7] was 286 ± 17 pmol/mg protein, the “Uptake (Average ± SD), Control” value [4, 8] was 42.2 ± 2.4 pmol/mg protein and the “Uptake (Average ± SD), Control” value [4, 9] was 121 ± 8 pmol/mg protein. The “Uptake (Average ± SD), Control” value [4, 10] was 284 ± 19 pmol/mg protein, the “Uptake (Average ± SD), OAT1” value [4, 11] was 109 ± 2 pmol/mg protein and the “Uptake (Average ± SD), OAT1” value [4, 12] was 294 ± 14 pmol/mg protein. The “Uptake (Average ± SD), OAT1” value [4, 13] was 591 ± 11 pmol/mg protein, the “Uptake (Average ± SD), Control” value ([4]; dichlorphenamide 10 μM, control HEK293 cells (vector only), incubation 1 min) was 45.4 ± 0.4 pmol/mg protein and the “Uptake (Average ± SD), Control” value ([4]; dichlorphenamide 10 μM, control HEK293 cells (vector only), incubation 3 min) was 123 ± 6 pmol/mg protein. The “Uptake (Average ± SD), Control” value ([4]; dichlorphenamide 10 μM, control HEK293 cells (vector only), incubation 10 min) was 265 ± 8 pmol/mg protein, the recovery at 10 μM ([4]; HEK293 cells expressing OAT1, pH 7.4, read-out: Recovery, OAT1) was 98.5% and the recovery at 10 μM ([4]; control HEK293 cells (transfected with vector only), pH 7.4, read-out: Recovery, Control) was 95.3%.
